Experimental data from US8293768B2, “Organic compounds” (Novartis AG, priority 2006, dated 2012).

melting point [°C]	Structure (SMILES)
135 to 137	Cc1nc(N2CCN(Cc3ccccc3)S2(=O)=O)sc1C(=O)NCc1ccccc1 [Example 27.1, N-benzyl-2-(5-benzyl-1,1-dioxido-1,2,5-thiadiazolidin-2-yl)-4-methyl-1,3-thiazole-5-carboxamide]
140 to 142	Cc1nc(N2CCN(Cc3ccccc3)S2(=O)=O)sc1C(=O)NCc1cccnc1 [Example 27.2, 2-(5-benzyl-1,1-dioxido-1,2,5-thiadiazolidin-2-yl)-4-methyl-N-(pyridin-3-ylmethyl)-1,3-thiazole-5-carboxamide]
142 to 144	Cc1nc(N2CCN(Cc3ccccc3)C2=N)sc1C(=O)NCc1ccc(F)cc1 [Example 27.4, 2-(3-benzyl-2-iminoimidazolidin-1-yl)-N-(4-fluorobenzyl)-4-methylthiazole-5-carboxamide]
140 to 142	Cc1nc(N2CCN(Cc3ccccc3)C2=N)sc1C(=O)NCc1ccc(F)c(F)c1 [Example 27.5, 2-(3-benzyl-2-iminoimidazolidin-1-yl)-N-(3,4-difluorobenzyl)-4-methylthiazole-5-carboxamide]
180 to 181	Cc1cc(-n2cnn(Cc3ccccc3)c2=O)sc1C(=O)NCc1cccnc1 [Example 31.1, 5-(1-benzyl-5-oxo-1H-1,2,4-triazol-4(5H)-yl)-3-methyl-N-(pyridin-3-ylmethyl)thiophene-2-carboxamide]
148 to 150	Cc1cc(-n2cnn(CCC3CC3)c2=O)sc1C(=O)NCc1cccnc1 [Example 31.2, 5-(1-(2-cyclopropylethyl)-5-oxo-1H-1,2,4-triazol-4(5H)-yl)-3-methyl-N-(pyridin-3-ylmethyl)thiophene-2-carboxamide]
176 to 178	Cc1cc(-n2cnn(Cc3ccc(C(F)(F)F)cc3)c2=O)sc1C(=O)NCc1cccnc1 [Example 31.3, 3-methyl-5-(5-oxo-1-(4-(trifluoromethyl)benzyl)-1H-1,2,4-triazol-4(5H)-yl)-N-(pyridin-3-ylmethyl)thiophene-2-carboxamide]
208 to 210	Cc1cc(-n2cnn(Cc3ccc(S(C)(=O)=O)cc3)c2=O)sc1C(=O)NCc1cccnc1 [Example 31.4, 3-methyl-5-(1-(4-(methylsulfonyl)benzyl)-5-oxo-1H-1,2,4-triazol-4(5H)-yl)-N-(pyridin-3-ylmethyl)thiophene-2-carboxamide]
189 to 191	Cc1cnc(CNC(=O)c2sc(-n3cnn(Cc4ccc(F)cc4)c3=O)cc2C)cn1 [Example 31.5, 5-(1-(4-fluorobenzyl)-5-oxo-1H-1,2,4-triazol-4(5H)-yl)-3-methyl-N-((5-methylpyrazin-2-yl)methyl)thiophene-2-carboxamide]
163 to 165	Cc1cc(-n2cnn(Cc3ccc(F)cc3)c2=O)sc1C(=O)NCc1ncco1 [Example 31.6, 5-(1-(4-fluorobenzyl)-5-oxo-1H-1,2,4-triazol-4(5H)-yl)-3-methyl-N-(oxazol-2-ylmethyl)thiophene-2-carboxamide]
168 to 170	Cc1cc(-n2cnn(Cc3ccc(F)cc3)c2=O)sc1C(=O)NCc1cnn(C)c1 [Example 31.7, 5-(1-(4-fluorobenzyl)-5-oxo-1H-1,2,4-triazol-4(5H)-yl)-3-methyl-N-((1-methyl-1H-pyrazol-4-yl)methyl)thiophene-2-carboxamide]
148 to 150	Cc1nc(CNC(=O)c2sc(-n3cnn(Cc4ccc(F)cc4)c3=O)cc2C)cs1 [Example 31.8, 5-(1-(4-fluorobenzyl)-5-oxo-1H-1,2,4-triazol-4(5H)-yl)-3-methyl-N-((2-methylthiazol-4-yl)methyl)thiophene-2-carboxamide]
151 to 153	Cc1nc(N2CCN(Cc3nccc4ccccc34)C2=O)sc1C(=O)NCc1cccnc1 [Example 32.1, 2-(3-(isoquinolin-1-ylmethyl)-2-oxoimidazolidin-1-yl)-4-methyl-N-(pyridin-3-ylmethyl)thiazole-5-carboxamide]
225 to 228	Cc1nc(N2CCN(Cc3cccc4cccnc34)C2=O)sc1C(=O)NCc1cccnc1 [Example 32.2, 4-methyl-2-(2-oxo-3-(quinolin-8-ylmethyl)imidazolidin-1-yl)-N-(pyridin-3-ylmethyl)thiazole-5-carboxamide]
185 to 188	Cc1cc(CN2CCN(c3nc(C)c(C(=O)NCc4cccnc4)s3)C2=O)no1 [Example 32.3, 4-methyl-2-(3-((5-methylisoxazol-3-yl)methyl)-2-oxoimidazolidin-1-yl)-N-(pyridin-3-ylmethyl)thiazole-5-carboxamide]
109 to 111	Cc1nc(N2CCN(Cc3c(C)noc3-c3ccccc3)C2=O)sc1C(=O)NCc1cccnc1 [Example 32.4, 4-methyl-2-(3-((3-methyl-5-phenylisoxazol-4-yl)methyl)-2-oxoimidazolidin-1-yl)-N-(pyridin-3-ylmethyl)thiazole-5-carboxamide]

More lines, now with the values behind:

Structure (SMILES)	melting point [°C]
COC(=O)c1cnc(N2CCN(CC3CC3)C2=O)s1 [Example 24, methyl 2-(3-(cyclopropylmethyl)-2-oxoimidazolidin-1-yl)thiazole-5-carboxylate]	124 to 126
Cc1nc(N2CCN(Cc3cccc(C(=O)O)c3)C2=O)sc1C(=O)NCc1ccccc1 [Example 25, 3-((3-(5-(benzylcarbamoyl)-4-methylthiazol-2-yl)-2-oxoimidazolidin-1-yl)methyl)benzoic acid]	120 to 123
O=C(O)c1cnc(N2CCN(CC3CC3)C2=O)s1 [Example 25.1, 2-(3-(cyclopropylmethyl)-2-oxoimidazolidin-1-yl)thiazole-5-carboxylic acid]	250 to 252
Cc1nc(N2CCN(Cc3cccc(C(=O)O)c3)C2=O)sc1C(=O)NCc1ccccc1 [Example 25.3, 3-((3-(5-(benzylcarbamoyl)-4-methylthiazol-2-yl)-2-oxoimidazolidin-1-yl)methyl)benzoic acid]	143 to 145
Cc1nc(N2CCN(Cc3ccccc3C(=O)O)C2=O)sc1C(=O)NCc1ccccc1 [Example 25.4, 2-((3-(5-(benzylcarbamoyl)-4-methylthiazol-2-yl)-2-oxoimidazolidin-1-yl)methyl)benzoic acid]	153 to 156
O=C(NCc1cccnc1)c1cnc(N2CCN(CC3CC3)C2=O)s1 [Example 26, 2-(3-(cyclopropylmethyl)-2-oxoimidazolidin-1-yl)-N-(pyridin-3-ylmethyl)thiazole-5-carboxamide]	190 to 192
Cc1nc(N2CCN(Cc3ccccc3)/C2=N\C#N)sc1C(=O)NCc1ccccc1 [Example 27, N-benzyl-2-(3-benzyl-2-(cyanoimino)imidazolidin-1-yl)-4-methylthiazole-5-carboxamide]	226 to 228
Cc1cc(-n2cnn(Cc3ccc(F)cc3)c2=O)sc1C(=O)NCc1cccnc1 [Example 31, 5-(1-(4-fluorobenzyl)-5-oxo-1H-1,2,4-triazol-4(5H)-yl)-3-methyl-N-(pyridin-3-ylmethyl)thiophene-2-carboxamide]	180 to 182
Cc1nc(N2CCN(Cc3csc4ccc(Cl)cc34)C2=O)sc1C(=O)NCc1cccnc1 [Example 32, 2-(3-((5-chlorobenzo[b]thiophen-3-yl)methyl)-2-oxoimidazolidin-1-yl)-4-methyl-N-(pyridin-3-ylmethyl)thiazole-5-carboxamide]	185 to 187
